In data set [1] the test system is H9. Put plainly: Effective concentration required to suppress HIV replication in H9 lymphocytes was determined; Moderate activity. Format: functional, cell-based, Homo sapiens.
Data set [2] can be described thus: Therapeutic index of compound was determined by the ratio of IC50 to that of EC50. Format: cell-based. As to conditions: human, H9 cells; read-out: TI.
Data set [3] deals with H9. Description: Effective concentration required to suppress HIV replication in H9 lymphocytes was determined. Type of data set: functional, cell-based. As to conditions: Homo sapiens.

Each structure is given as a SMILES string. Converted amounts (≈) assume the structure as drawn.

`C=CC(C)(O)CC/C=C(\CO)C(=O)OC[C@@H]1O[C@@H](OC(=O)[C@]23CCC(C)(C)C[C@H]2C2=CC[C@@H]4[C@@]5(C)CC[C@H](O[C@@H]6O[C@@H](CO[C@@H]7OC[C@H](O)[C@H](O)[C@@H]7O[C@@H]7OC[C@@H](O)[C@H](O)[C@@H]7O)[C@@H](O)[C@H](O)[C@@H]6O)C(C)(C)[C@@H]5CC[C@@]4(C)[C@]2(C)C[C@H]3O)C(O[C@@H]2O[C@@H](C)[C@H](O[C@@H]3OC[C@@H](O)[C@H](O[C@@H]4OC[C@@H](O)[C@H](O)C4O)[C@@H]3O)[C@H](O)[C@H]2O)[C@@H](O)[C@@H]1O` (some centres undefined): the EC50 (as a rule, the concentration that produces a half-maximal response) with H9 [1] is “Moderate”.
Same read-out and setting: the result for `C=CC(C)(O)CC/C=C(\CO)C(=O)O[C@H]1[C@@H](OC[C@@H]2O[C@@H](OC(=O)[C@]34CCC(C)(C)C[C@H]3C3=CC[C@@H]5[C@@]6(C)CC[C@H](O[C@@H]7O[C@@H](CO[C@@H]8OC[C@H](O)[C@H](O)[C@@H]8O[C@@H]8OC[C@@H](O)[C@H](O)[C@@H]8O)[C@@H](O)[C@H](O)[C@@H]7O)C(C)(C)[C@@H]6CC[C@@]5(C)[C@]3(C)C[C@H]4O)C(O[C@@H]3O[C@@H](C)[C@H](O[C@@H]4OC[C@@H](O)[C@H](O[C@@H]5OC[C@@H](O)[C@H](O)C5O)[C@@H]4O)[C@H](O)[C@H]3O)[C@@H](O)[C@@H]2O)O[C@@H](C)[C@H](O)[C@@H]1OC(=O)/C(=C/CCC(C)(O)C=C)CO` (some centres undefined) reads “Moderate”.
Turning to `C[C@H]1[C@H]2[C@H](C[C@@]3(C)C4=CC[C@H]5C(C)(C)[C@@H](OC6OCC(O)C(O)C6O)CC[C@@]56C[C@@]46CC[C@]23C)O[C@@]2(O)[C@@H]1OC(C)(C)[C@H]2O` (some centres undefined), in data set [2], the selectivity ratio stood at 30.2.
As for `C[C@H]1[C@H]2[C@H](C[C@@]3(C)[C@@H]4CC[C@H]5C(C)(C)[C@@H](OC6OCC(O)C(O)C6O)CC[C@@]56C[C@@]46CC[C@]23C)O[C@@]2(O)[C@@H]1OC(C)(C)[C@H]2O` (some centres undefined), the selectivity ratio in data set [2] is 30.2.
Turning to `CC(=O)O[C@@H]1C[C@@]23C[C@@]24CC[C@H](OC2OCC(O)C(O)C2O)C(C)(C)[C@@H]4CC[C@H]3[C@]2(C)C[C@@H]3O[C@]4(C[C@@H](C)[C@@H]3[C@@]12C)O[C@H](O)[C@@]1(C)O[C@@H]41` (some centres undefined), the EC50 in the data set with H9 [3] came out at 0.375 µg/mL (≈ 0.554 µM). Further, in data set [2], the selectivity ratio turned out to be 144.
`C[C@@H]1CC[C@@]2(OC1)O[C@H]1C[C@H]3[C@@H]4CC[C@@H]5C[C@@H](O[C@@H]6O[C@@H](CO)[C@@H](O)[C@H](O)[C@@H]6O[C@@H]6O[C@H](C)[C@H](O)[C@@H](O)[C@@H]6O)CC[C@]5(C)[C@H]4CC[C@]3(C)[C@H]1[C@@H]2C`: the EC50 in the data set on H9 [3] is < 0.25 µg/mL.
Take `C[C@@H]1C[C@]2(C[C@@H](C)[C@H]3[C@@H](C[C@@]4(C)C5=C(CC[C@]34C)[C@@]3(C)CC[C@H](O[C@@H]4O[C@@H](O[C@@H]6OC[C@H](O)[C@H](O)[C@@H]6O[C@@H]6O[C@@H](CO)[C@@H](O)[C@H](O)[C@@H]6O[C@@H]6O[C@@H](C)[C@H](O)[C@H](O)[C@H]6O)[C@@H](O)[C@H](O)[C@@H]4O)[C@@](C)(CO)[C@@H]3CC5)O2)OC1=O`: the selectivity ratio in data set [2] came out at 30.2.
`CC(=O)OC1COC(O[C@H]2CC[C@]34C[C@]35CC[C@]3(C)[C@@H]([C@H](C)C[C@@H](OC(C)=O)[C@@H]6OC6(C)C)C(=O)[C@H](OC(C)=O)[C@@]3(C)[C@@H]5CC[C@H]4C2(C)C)C(OC(C)=O)C1OC(C)=O` (some centres undefined): the selectivity ratio in data set [2] worked out at 30.2.
On to `C[C@@H]1CC[C@@]2(OC1)O[C@H]1C[C@H]3[C@@H]4CC[C@@H]5C[C@@H](O[C@@H]6O[C@@H](CO)[C@H](O)[C@H](O)[C@@H]6O[C@@H]6O[C@@H](CO)[C@@H](O)[C@H](O)[C@@H]6O)CC[C@]5(C)[C@H]4CC[C@]3(C)[C@H]1[C@@H]2C`, for which, in the data set with H9 [3], the EC50 was < 0.25 µg/mL.
On to `C=CC(C)(O)CC/C=C(\CO)C(=O)OC[C@@H]1O[C@@H](OC(=O)[C@]23CCC(C)(C)C[C@H]2C2=CC[C@@H]4[C@@]5(C)CC[C@H](O[C@@H]6O[C@@H](CO[C@@H]7OC[C@H](O)[C@H](O)[C@@H]7O[C@@H]7OC[C@@H](O)[C@H](O)[C@@H]7O)[C@@H](O)[C@H](O)[C@@H]6O)C(C)(C)[C@@H]5CC[C@@]4(C)[C@]2(C)CC3)C(O[C@@H]2O[C@@H](C)[C@H](O[C@@H]3OC[C@@H](O)[C@H](O[C@@H]4OC[C@@H](O)[C@H](O)C4O)[C@@H]3O)[C@H](O)[C@H]2O)[C@@H](O)[C@@H]1O` (some centres undefined), for which the EC50 entry in the data set on H9 [1] is listed as “Moderate”.
With `C=CC(C)(O)CC/C=C(\CO)C(=O)O[C@H]1[C@H](O[C@@H]2[C@H](OC(=O)[C@]34CCC(C)(C)C[C@H]3C3=CC[C@@H]5[C@@]6(C)CC[C@H](O[C@H]7O[C@@H](CO[C@@H]8OC[C@H](O)[C@@H](O)[C@@H]8O[C@@H]8OC[C@@H](O)[C@H](O)[C@@H]8O)[C@@H](O)[C@H](O)[C@@H]7O)C(C)(C)[C@@H]6CC[C@@]5(C)[C@]3(C)CC4)O[C@@H](COC(=O)/C(=C/CC[C@](C)(C=C)O[C@@H]3OC[C@@H](O)[C@H](O)[C@@H]3OC(=O)/C(=C/CC[C@@](C)(O)C=C)CO)CO)[C@@H](O)[C@@H]2O)O[C@@H](C)[C@H](O[C@@H]2OC[C@@H](O)[C@H](O[C@@H]3OC[C@@H](O)[C@H](O)[C@@H]3O)[C@@H]2O)[C@@H]1O` (some centres undefined), the EC50 entry with H9 [1] is given as “Moderate”.
For the compound `CC(=O)O[C@@H]1C[C@@]23C[C@@]24CC[C@H](OC2OCC(O)C(O)C2O)C(C)(C)[C@@H]4CC[C@H]3[C@]2(C)C[C@@H]3O[C@]4(C[C@@H](C)[C@@H]3[C@@]12C)OC[C@]1(C)O[C@H]41` (some centres undefined), in data set [2], the selectivity ratio amounted to 30.2.
On the same count and under the same terms, the result for `C[C@@H]1C[C@H]2O[C@@]3(O[C@@H]2C(C)(C)O)[C@H](O)[C@@]2(C)[C@@H]4CC[C@H]5C(C)(C)[C@@H](O[C@@H]6OC[C@@H](O)[C@H](O)[C@H]6O)CC[C@@]56C[C@@]46CC[C@]2(C)[C@@H]13` reads 30.2.
